Legend:
blood clotting [1] = test: Effect of curcumin alone on blood clotting
Description: Turmeric powder is the dried powdered rhizomes of Curcuma longa of the ginger family. Turmeric powder comprises 60-70% carbohydrates, 6-13% water, 6-8% protein, 5-10% fat, 3-7% dietary minerals, 3-7% essential oils such as turmerone and germacrone, 2-7% dietary fiber, and 1-6% curcuminoids. (including curcumin). […] The turmeric powder may be passed through a 100 mesh (149 micron) sieve such that the resulting particles are smaller than 149 microns in diameter. Generally, turmeric powder is present in the suspension at a concentration between 0.1 g per mL and 2 g per ml. In one embodiment, the concentration is between 0.1 g per mL and 1 g per mL. In yet another embodiment, the concentration is between 0.1 g per mL and 0.5 g per mL.

most cancer cell lines = details: cited from earlier work
blood clotting [2] = details: Kim et al., BMB Rep. 2012; cited from earlier work

COc1cc(/C=C/C(=O)CC(=O)/C=C/c2ccc(O)c(OC)c2)ccc1O [curcumin]
promotion of blood clotting (blood clotting [1]): not found to promote blood clotting
anti-cancer activity (most cancer cell lines): moderate
IC50 (most cancer cell lines; most cancer cell lines, peer reviewed literature): 20 µM
anticoagulant activity (blood clotting [2]): well-known anticoagulant

— patent US12642885B2, “Hemostatic and wound healing turmeric-polymer composite materials” (priority 2021, dated 2026)
